# Results from US11185076B2 (priority 2017, dated 2021).
# Read-outs that look alike come from different tables or passages of the source.
# Tests used:
# [1] = tested on: cucumber mosaic virus (CMV); conditions: for Control value / Disease Severity index / Number of CMV Infected Leaves: Acute wilt / Number of CMV Infected Leaves: Mosaic / Number of CMV Infected Leaves: No Infection: drench 1 day before inoculation; for Number of CMV Infected Leaves: Acute wilt / Number of CMV Infected Leaves: Mosaic / Number of CMV Infected Leaves: No Infection: 3 checked
# [2] = tested on: cucumber mosaic virus (CMV)
# Rice Streak Virus (RSV) = test: Control test on rice streak virus (RSV) (field trial of nursery box application); type: in vivo, rice stripe virus; conditions: rice (cultivar: Hinohikari)
# Method: Rice seedlings (cultivar: Hinohikari) were grown in a greenhouse according to an ordinary procedure and transplanted to an open paddy field. Granules containing 4% of tolprocarb (a) and granules containing 6% of dinotefuran (insecticidal ingredient) formulated according to Formulation Example 2 were respectively treated or were treated in combination in 50 g per box in a nursery box on the day of transplantation. 35 days after transplantation, larvae of RSV-carrying small brown planthopper were released for one week to inoculate rice plants by sucking. At 79 days and 99 days after transplantation, the presence or absence of the unshooting of head was examined.
# [3] = tested on: Chinese cabbage soft rot bacteria (Erwinia carotovora subsp. carotovora); test: Control test on Chinese cabbage soft rot (soil incorporation test); type: in vivo
# Description: Granules containing 3% of tolprocarb (a) (trade name; Sanblas (registered trademark) granules (manufactured by Mitsui Chemical Agro Co., Ltd.)), granules containing 5% of pyroquilon (b) (trade name; Coratop (registered trademark) granules (manufactured by Mitsui Chemical Agro Co., Ltd.)), granules containing 1.5% of simeconazole (fungicidal component) (trade name; Mongalite (registered trademark) granules (manufactured by Mitsui Chemical Agro Co., Ltd.)) and flowable containing 20% of penthiopyrad (fungicidal component) were respectively incorporated or were incorporated in combination into a pot soil in a predetermined amount. Then, the Chinese cabbage was planted in the pot soil. At 14 days after chemical agent treatment, the Chinese cabbage soft rot was inoculated. […] Thereafter, the inoculated plantes were put in a 25° C. greenhouse to promote infection for 2 days, and the control effect was examined. The infection was examined by the degree of infection, and the disease severity index was calculated based on the degree of infection. The control value was calculated from the disease severity index.
# Severity index=((the number of leaves of infection index 0×0)+(the number of leaves of infection index 1×1)+(the number of leaves of infection index 2×2)+(the number of leaves of infection index 3×3)/(the number of leaves examined×3)×100
# (§1) The synergistic effect was calculated from the following Colby's equation. Synergistic effect (expected value)=(control value of compound A+control value of compound B)−(control value of compound A×control value of compound B)/100
# (§2) When the control value exceeded the expected value in the case of mixing the compounds and applying the mixed product, it was determined that there was a synergistic effect.
# [4] = tested on: tomato yellow leaf curl disease (TYLCV); test: Control test on tomato yellow leaf curl disease (TYLCV) (soil drench test); type: in vivo, tomato yellow leaf curl virus
# Method: Granules containing 3% of tolprocarb (a) (trade name; Sanblas (registered trademark) granules (manufactured by Mitsui Chemical Agro Co., Ltd.)), granules containing 5% of pyroquilon (b) (trade name; Coratop (registered trademark) granules (manufactured by Syngenta Japan Ltd.)) and granules containing 1% of dinotefran (trade name; Starkle (registered trademark) granules (manufactured by Mitsui Chemicals Agro Co., Ltd.)) were respectively treated or were treated in combination to plant foot of tomato in a predetermined amount. Seven days after chemical agent treatment, the plants were inoculated by sucking of one adult of TYLCV-carrying tobacco whitefly biotype Q per plant for 3 days. Thereafter, the inoculated plants were put in the greenhouse to promote infection, and the control effect was examined after the infection. The infection was examined by the degree of infection, and the disease severity index was calculated based on the degree of infection. The control value was calculated from the disease severity index.
# 1: observation of initial infection (delayed infection)
# 2: observation of infection Severity index=((the number of plants of infection index 0×0)+(the number of plants of infection index 1×1)+(the number of plants of infection index 2×2)/(the number of plants examined×2))×100
# as §1, §2
# [5] = cucumber (cultivar: Sagami-hanjiro)
# [6] = 5 plants, drench 3 days before inoculation, g ai/10a: (a) 90, (b) 150, dinotefuran 120, thiamethoxam 60, (h) 250, mixtures 90 + 120 and 150 + 60
# [7] = drench 3 days before inoculation, g ai/10a: (a) 90, (b) 150, dinotefuran 120, thiamethoxam 60, (h) 250, mixtures 90 + 120 and 150 + 60
structure (smiles),measurement,setting,value
"Cc1ccc(C(=O)NC[C@@H](NC(=O)OCC(F)(F)F)C(C)C)cc1 [Tolprocarb (a), tolprocarb]",Control value,[1]; 22.5 g ai/10a,66.7
same,Disease Severity index,[1]; 22.5 g ai/10a,33.3
same,Number of CMV Infected Leaves: Acute wilt,[1]; 22.5 g ai/10a,1
same,Number of CMV Infected Leaves: Mosaic,[1]; 22.5 g ai/10a,0
same,Number of CMV Infected Leaves: No Infection,[1]; 22.5 g ai/10a,2
same,Control value,[1]; 45 g ai/10a,16.7
same,Disease Severity index,[1]; 45 g ai/10a,83.3
same,Number of CMV Infected Leaves: Acute wilt,[1]; 45 g ai/10a,2
same,Number of CMV Infected Leaves: Mosaic,[1]; 45 g ai/10a,1
same,Number of CMV Infected Leaves: No Infection,[1]; 45 g ai/10a,0
same,Control value,[1]; 90 g ai/10a,50.0
same,Disease Severity index,[1]; 90 g ai/10a,50.0
same,Number of CMV Infected Leaves: Acute wilt,[1]; 90 g ai/10a,1
same,Number of CMV Infected Leaves: Mosaic,[1]; 90 g ai/10a,1
same,Number of CMV Infected Leaves: No Infection,[1]; 90 g ai/10a,1
same,phytotoxicity,[1]; [5],not observed
same,control effect on cucumber mosaic virus (CMV) (in words),[1]; treatment on 1 day before inoculation,excellent control effect
same,Number of CMV Infected Plants: Acute wilt,[2]; [6],0
same,Number of CMV Infected Plants: Mosaic,[2]; [6],3
same,Number of CMV Infected Plants: No Infection,[2]; [6],2
same,phytotoxicity,[2]; [5],not observed
same,Control value,[2]; [7],66.7
same,Disease Severity index,[2]; [7],30.0
same,control effect on cucumber mosaic virus (CMV) (in words),[2]; treatment on 3 day before inoculation,excellent control effect
same,phytotoxicity,Rice Streak Virus (RSV),not observed
same,phytotoxicity,[3]; Chinese cabbage plant (cultivar: Muso),not observed
same,control effect on the Chinese cabbage soft rot (in words),[3]; whole soil incorporation at the time of planting,excellent control effect
same,phytotoxicity,[4]; tomato (cultivar: Sekai-ichi),not observed
same,control effect on tomato yellow leaf curl disease (TYLCV) (in words),[4]; treatment on 7 day before inoculation,excellent control effect
